We go through twelve molecules from ChEMBL document CHEMBL1201862, “PubChem BioAssay data set” (2004).

A word on the AC50: it is the concentration giving half of the maximal activity seen. As usually defined, the IC50 is the point on the concentration scale where inhibition reaches its midpoint.

Assay [1] in a line: P. falciparum Dd2 growth inhibitors, dose response, SYBR Green, cherry-picked samples (AID 1159567). Type of assay: functional, cell-based.
A short description of assay [2]: toxicity to human hepatoma HepG2 cells – cell-based, cherry-picked samples, cytotoxicity control, dose response (AID 1159577). Type of assay: functional.
Assay [3] in a line: growth inhibition of yeast DHODH-expressing 3D7 parasites – SYBR Green, dry powder samples, dose response (AID 1159570).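 Note: parasite growth measured after 72 hours of compound exposure.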 The assay is classed as functional, cell-based.
Assay [4] is described as follows: toxicity to human HepG2 hepatoma cells – cell-based, plate reader, dry powder samples, cytotoxicity control, dose response (AID 1159569).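 Note: inhibitor potency with signal falling toward the positive control level.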 The assay is classed as functional.
The nature of assay [5]: Dd2 malaria parasite growth inhibition potency – SYBR Green, dry powder samples, dose response (AID 1159566).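 Note: potency for growth inhibition with lower SYBR green DNA signal.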 The assay is classed as functional, cell-based.
A short description of assay [6]: growth inhibition of PfATP4-mutant resistant parasites – NITD609-resistant line, SYBR Green, dry powder, dose response (AID 1159571).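 Note: parasites synchronized at ring stage by sorbitol before testing.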 Type of assay: functional, cell-based.
Assay [7] is described as follows: Dd2 parasite growth inhibition in erythrocytes – SYBR Green, dry powder samples, set 9, dose response (AID 1159568). Type of assay: functional, cell-based.
Assay [8] deals with Eukaryotic translation initiation factor 4E (Mus musculus, UniProt P63073). As to the kind of experiment: blockers of eIF4G binding by eIF4E – biochemical, TR-FRET, dose response (AID 855).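 Note: potency for disrupting eIF4E binding to eIF4GI seen as loss of FRET.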 Type of assay: functional. On the technique in general: In TR-FRET formats the signal depends on donor and acceptor labels being close together.
Eukaryotic translation initiation factor 4E, sequence (P63073 whole entry): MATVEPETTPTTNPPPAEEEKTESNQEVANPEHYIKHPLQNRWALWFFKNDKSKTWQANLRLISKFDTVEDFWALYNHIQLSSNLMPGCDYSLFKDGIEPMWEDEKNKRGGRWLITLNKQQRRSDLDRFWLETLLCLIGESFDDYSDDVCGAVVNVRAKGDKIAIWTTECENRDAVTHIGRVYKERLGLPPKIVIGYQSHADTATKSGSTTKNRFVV
In assay [9] the target is Large T antigen (Simian virus 40, UniProt P03070). The assay is classed as functional, Betapolyomavirus macacae.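 Note: Confirmatory-stage PubChem screen for compounds that inhibit SV40 T antigen.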
Large T antigen, sequence (P03070 whole entry): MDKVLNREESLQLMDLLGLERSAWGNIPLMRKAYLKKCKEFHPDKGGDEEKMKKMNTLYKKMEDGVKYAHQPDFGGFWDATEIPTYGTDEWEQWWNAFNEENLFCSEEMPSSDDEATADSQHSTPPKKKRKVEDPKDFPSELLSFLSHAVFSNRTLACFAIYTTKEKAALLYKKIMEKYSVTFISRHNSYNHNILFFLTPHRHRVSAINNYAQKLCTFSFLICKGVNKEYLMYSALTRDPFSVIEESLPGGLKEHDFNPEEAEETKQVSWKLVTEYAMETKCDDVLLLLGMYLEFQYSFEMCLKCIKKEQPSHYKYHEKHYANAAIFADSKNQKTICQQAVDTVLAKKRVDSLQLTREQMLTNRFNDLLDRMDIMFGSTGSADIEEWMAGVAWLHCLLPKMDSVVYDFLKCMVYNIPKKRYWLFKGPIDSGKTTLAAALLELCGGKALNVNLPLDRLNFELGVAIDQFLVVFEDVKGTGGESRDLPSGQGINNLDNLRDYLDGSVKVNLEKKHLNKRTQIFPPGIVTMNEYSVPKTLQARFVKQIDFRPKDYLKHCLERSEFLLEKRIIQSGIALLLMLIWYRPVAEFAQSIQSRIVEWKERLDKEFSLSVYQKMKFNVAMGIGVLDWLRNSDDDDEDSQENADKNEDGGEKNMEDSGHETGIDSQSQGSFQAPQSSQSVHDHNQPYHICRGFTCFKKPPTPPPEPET
The target of assay [10] is T1, 1-phosphatidylinositol 4,5-bisphosphate phosphodiesterase gamma-1 (Homo sapiens, UniProt P19174).
T1 sequence (P19174 whole entry): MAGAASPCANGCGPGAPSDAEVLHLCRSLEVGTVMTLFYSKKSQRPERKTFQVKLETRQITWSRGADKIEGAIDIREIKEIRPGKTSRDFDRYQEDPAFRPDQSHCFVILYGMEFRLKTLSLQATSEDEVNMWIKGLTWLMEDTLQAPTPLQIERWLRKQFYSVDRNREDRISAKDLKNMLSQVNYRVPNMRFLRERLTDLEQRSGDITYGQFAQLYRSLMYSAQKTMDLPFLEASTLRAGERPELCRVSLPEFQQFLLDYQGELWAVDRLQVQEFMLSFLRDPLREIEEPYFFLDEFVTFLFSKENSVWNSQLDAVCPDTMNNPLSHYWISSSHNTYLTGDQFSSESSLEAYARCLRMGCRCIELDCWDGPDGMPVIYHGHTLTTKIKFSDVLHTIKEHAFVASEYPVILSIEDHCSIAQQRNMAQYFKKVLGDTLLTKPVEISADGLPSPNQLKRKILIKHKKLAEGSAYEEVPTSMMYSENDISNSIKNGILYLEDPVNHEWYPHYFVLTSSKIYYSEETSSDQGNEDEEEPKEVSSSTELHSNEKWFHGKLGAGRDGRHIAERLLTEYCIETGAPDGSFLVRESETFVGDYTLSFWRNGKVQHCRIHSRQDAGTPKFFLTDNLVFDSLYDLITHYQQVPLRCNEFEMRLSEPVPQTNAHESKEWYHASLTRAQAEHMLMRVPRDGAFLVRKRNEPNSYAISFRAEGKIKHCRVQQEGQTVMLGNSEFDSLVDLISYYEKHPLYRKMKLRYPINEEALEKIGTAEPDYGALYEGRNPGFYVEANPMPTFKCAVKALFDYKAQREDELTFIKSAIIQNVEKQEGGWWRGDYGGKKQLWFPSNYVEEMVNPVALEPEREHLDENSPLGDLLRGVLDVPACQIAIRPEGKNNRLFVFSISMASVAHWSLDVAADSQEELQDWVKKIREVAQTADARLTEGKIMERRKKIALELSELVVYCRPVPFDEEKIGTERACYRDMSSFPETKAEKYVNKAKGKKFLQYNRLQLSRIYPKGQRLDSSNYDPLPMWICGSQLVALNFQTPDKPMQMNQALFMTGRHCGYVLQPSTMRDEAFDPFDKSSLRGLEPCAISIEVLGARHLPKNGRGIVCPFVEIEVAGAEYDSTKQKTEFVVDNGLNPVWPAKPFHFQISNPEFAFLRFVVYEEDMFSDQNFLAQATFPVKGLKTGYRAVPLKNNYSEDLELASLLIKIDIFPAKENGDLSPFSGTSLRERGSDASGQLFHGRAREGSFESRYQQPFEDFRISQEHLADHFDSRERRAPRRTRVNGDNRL
Nature of the assay: Counterscreen for inhibitors of phospholipase C isozymes (PLC-B3): Fluorescence-based biochemical high throughput dose response assay to identify inhibitors of phospholipase C isozymes (PLC-gamma1). A general note: Counterscreens check selectivity or assay interference.

In assay [11] the target is T2, 1-phosphatidylinositol 4,5-bisphosphate phosphodiesterase beta-3 (Homo sapiens, UniProt Q01970).
T2 sequence (Q01970 whole entry): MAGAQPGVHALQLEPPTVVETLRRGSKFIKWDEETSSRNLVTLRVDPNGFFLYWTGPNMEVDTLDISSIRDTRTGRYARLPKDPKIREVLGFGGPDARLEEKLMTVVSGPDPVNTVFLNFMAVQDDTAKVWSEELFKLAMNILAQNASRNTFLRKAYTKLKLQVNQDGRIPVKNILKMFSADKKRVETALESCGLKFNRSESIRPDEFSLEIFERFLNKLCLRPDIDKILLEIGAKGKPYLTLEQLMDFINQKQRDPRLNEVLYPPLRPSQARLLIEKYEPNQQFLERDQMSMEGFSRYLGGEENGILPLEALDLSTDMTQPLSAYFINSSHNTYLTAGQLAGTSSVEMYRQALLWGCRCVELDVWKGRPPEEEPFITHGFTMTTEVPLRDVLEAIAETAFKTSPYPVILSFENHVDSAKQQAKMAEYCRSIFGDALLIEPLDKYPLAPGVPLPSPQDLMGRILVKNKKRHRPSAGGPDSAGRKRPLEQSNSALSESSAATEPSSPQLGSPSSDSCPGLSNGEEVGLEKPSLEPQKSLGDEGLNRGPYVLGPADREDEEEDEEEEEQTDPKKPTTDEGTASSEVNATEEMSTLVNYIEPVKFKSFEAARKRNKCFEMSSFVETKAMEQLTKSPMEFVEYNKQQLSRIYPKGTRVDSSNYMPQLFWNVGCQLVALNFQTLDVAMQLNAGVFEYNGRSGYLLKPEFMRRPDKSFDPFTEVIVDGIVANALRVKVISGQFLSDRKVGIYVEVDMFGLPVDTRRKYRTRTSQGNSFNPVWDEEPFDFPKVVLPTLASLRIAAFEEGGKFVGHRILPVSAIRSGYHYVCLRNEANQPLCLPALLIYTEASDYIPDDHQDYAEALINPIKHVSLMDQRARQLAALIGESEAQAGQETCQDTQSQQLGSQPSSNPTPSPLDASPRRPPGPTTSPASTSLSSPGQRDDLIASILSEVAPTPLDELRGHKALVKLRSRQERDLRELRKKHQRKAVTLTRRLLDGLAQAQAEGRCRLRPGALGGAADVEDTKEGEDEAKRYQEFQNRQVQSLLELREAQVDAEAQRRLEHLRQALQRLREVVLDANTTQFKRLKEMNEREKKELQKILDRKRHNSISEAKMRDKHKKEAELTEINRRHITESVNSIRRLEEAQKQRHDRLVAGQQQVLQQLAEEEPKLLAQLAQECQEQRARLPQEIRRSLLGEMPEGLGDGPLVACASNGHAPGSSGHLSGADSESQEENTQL
Nature of the assay: Fluorescence-based biochemical high throughput dose response assay to identify inhibitors of phospholipase C isozymes (PLC-B3).

For assay [12], the system named is H9c2. Nature of the assay: cells. Type of assay: functional, cell-based. Conditions: Rattus norvegicus, H9c2, Myocardium.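 Note: confirmatory concentration-response retest of ultra-high-throughput screening hits for modulation of myocardial damage; cell death induced by hydrogen peroxide oxidative stress; compound pretreatment for 60 min then peroxide exposure for 2 h; potency is for protecting the cells against peroxide damage rather than for killing them.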
Assay [13] in a line: A549 cell cytotoxicity, dose response, cytotoxicity control, plate reader, cherry-pick, antagonist series (AID 743412). The assay is classed as functional, cell-based.
Assay [14] can be described thus: toxicity toward HepG2 liver cells – cell-based, plate reader, cherry-pick, antagonist series, cytotoxicity control, dose response (AID 743416). The assay is classed as functional.
Assay [15] can be described thus: blockers of bursicon-stimulated LGR2 cAMP reporter – cell-based, HEK293, CRE-luciferase reporter, cherry pick, set 2, dose response (AID 743343).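 Note: transfected cells were stimulated with diluted bursicon conditioned medium after compound addition.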 Type of assay: functional. (A reporter such as luciferase makes a cellular process visible.)
Assay [16] is described as follows: blockade of melanocortin 4 receptor signaling – cell-based, plate reader, cherry pick, counter-screen for LGR2 antagonist project, dose response (AID 743444).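 Note: transfected HEK 293 cells stimulated with alpha-MSH peptide; potency of inhibitors of the alpha-MSH evoked signal.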 Type of assay: functional.
The nature of assay [17]: viability loss in HEK293 cells – cell-based, plate reader, cherry-picked samples, cytotoxicity control, dose response (AID 743446). The assay is classed as functional.

Activity calls are given as the source filed them.

As to `CCCC#Cc1ccc2c(c1)O[C@@H](CN(C)Cc1ccncc1)[C@H](C)CN([C@@H](C)CO)S2(=O)=O`, the AC50 in assay [1] was 3.85 µM (active); in [2], > 39 µM (inactive).

Take `CCCc1cn(CC[C@@H]2CC[C@@H](NS(=O)(=O)c3ccc(-c4ccccc4)cc3)[C@@H](CO)O2)nn1`: the AC50 in assay [3] was 1.6 µM (active); in assay [4], 33.6 µM (active); in [1] it was 1.45 µM (active); in assay [5] it was 0.698 µM (active); in assay [2], > 39 µM (inactive); in assay [6], 0.949 µM (active).

As for `O=C(Nc1ccc(F)cc1)N1CCCCN2[C@@H](CO)[C@H](c3ccc(C#Cc4ccccc4)cc3)[C@@H]2C1`, the AC50 in [1] was < 0.3 µM (active); in assay [2] it was 7.42 µM (active).

For the molecule `COc1ccccc1S(=O)(=O)N(C)C[C@@H]1Oc2cc(/C=C/c3ccccc3)ccc2S(=O)(=O)N([C@H](C)CO)C[C@H]1C`, the AC50 was 0.466 µM (active) in [3]; 81.6 µM (active) in [4]; 0.443 µM (active) in assay [7]; 0.459 µM (active) in assay [1]; 0.22 µM (active) in assay [5]; 0.215 µM (active) in assay [6].

Take `COc1ccccc1-c1ccc2c(c1)[C@@H]1[C@@H](CCN1C(=O)C1CCCCC1)[C@@H](CO)N2`: the concentration at half-maximal activity (AC50) in assay [3] was 0.488 µM (active); in [4], 11.1 µM (active); in [1], 1.74 µM (active); in assay [5], 0.283 µM (active); in [6], 0.498 µM (active).

Consider `CCNc1nc(NC(C)C)nc(Oc2ccc(OCCOc3ccccc3)nn2)n1`, for which, in assay [8], the IC50 was > 64 µM (inactive).

For `O=C1NC(=S)S/C1=C\c1ccc(SCc2ccccc2)o1`, the IC50 in assay [9] is > 100 µM (active); in assay [10], > 122 µM (inactive); in assay [11] it was > 122 µM (inactive).

For `O=C(COC(=O)c1ccccc1C(=O)OCC(=O)NCCc1c[nH]c2ccccc12)NCCc1c[nH]c2ccccc12`, the IC50 in assay [12] was > 79 µM (inactive); in assay [10] it was > 123 µM (inactive); in [11] it was > 123 µM (inactive).

For the molecule `COc1ccc(-c2coc3c(C(=O)Nc4cc(OC)c(OC)c(OC)c4)cccc23)c(C)c1`, the AC50 is 9.94 µM (active) in assay [13]; 18.3 µM (active) in assay [14]; 1.2 µM (active) in [15]; 0.905 µM (active) in assay [16]; 15.3 µM (active) in assay [17].

Turning to `COc1ccc(-c2nc(-c3ccccc3)no2)c(OC)c1`, the AC50 in assay [13] is 28.4 µM (active); in assay [14], 47.6 µM (active); in assay [15], 0.621 µM (active); in assay [16] it was 1.05 µM (active); in [17], 31.9 µM (active).

With `C/N=C1/SC(CC(=O)NCCc2ccc(OC)c(OC)c2)C(=O)N1C` (configuration not stated), the IC50 in assay [10] and in [11] was > 122 µM (inactive) in each case.

With `OC[C@@H]1[C@H](c2ccc(-c3ccc(F)cc3)cc2)[C@@H](CNC2CCCC2)N1CCC(F)(F)F`, the AC50 is 0.259 µM (active) in assay [3]; 21.1 µM (active) in assay [4]; 0.491 µM (active) in assay [7]; 0.401 µM (active) in [1]; 0.113 µM (active) in [5]; > 39 µM (inactive) in assay [2]. In [6], the AC50 is 0.241 µM (active).
